Measured values taken from EP1082127B1 (WARNER-LAMBERT COMPANY LLC, priority 1998, dated 1999).

Legend:
[1] = system: IL-1β production in human peripheral blood mononuclear cells (PBMCs); assay: PBMC Cellular Assay - IC50 Determinations (LPS-stimulated IL-1β production, ELISA); assay type: cell-based; details: human PBMCs stimulated overnight with 10 ng/mL LPS, mature IL-1β by ELISA
Description: Further evidence that compounds of Formula I are inhibitors of ICE is provided by their ability to inhibit IL-1β production in human peripheral blood mononuclear cells (PBMCs) as described herein. PBMCs are isolated from heparinized blood by centrifugation over a ficoll cushion, then washed three times with phosphate-buffered saline. PBMCs are suspended in a medium containing RPMI 1640 with glutamine, penicillin, streptomycin, and 2% human AB serum, then plated at 10^6 cells per well in 96-well flat bottom plates. PBMCs are stimulated overnight with 10 ng/mL of lipopolysaccharide (LPS, E. coli strain 0111:B4; Calbiochem) in the presence or absence of a compound of Formula I. Medium is harvested, and the level of mature IL-1β was determined using an ELISA kit from R&D Systems. Cells were cultured for an additional 4 hours in the presence of 3-(4,5-dimethylthiazol-2-yl)-2,5-diphenyltetrazolium bromide (MTT) to determine viability.

Ich-2 enzyme = target: T1, Ich-2 enzyme (Homo sapiens, UniProt P49662); assay: Ich-2 Colorimetric Dose-Response (IC50) Assay; assay type: biochemical; details: enzyme 64 nM, 60 µM Ac-Leu-Glu-Val-Asp-pNA; read-out: ICH2 IC50 (Caspase 4)
T1 sequence (P49662 81-270 limits assumed): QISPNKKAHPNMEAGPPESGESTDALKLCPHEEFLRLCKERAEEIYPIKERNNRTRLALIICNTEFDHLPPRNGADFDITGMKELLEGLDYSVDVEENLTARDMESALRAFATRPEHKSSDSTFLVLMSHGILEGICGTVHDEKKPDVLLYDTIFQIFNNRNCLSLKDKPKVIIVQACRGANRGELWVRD
T1 sequence (P49662 290-377 limits assumed): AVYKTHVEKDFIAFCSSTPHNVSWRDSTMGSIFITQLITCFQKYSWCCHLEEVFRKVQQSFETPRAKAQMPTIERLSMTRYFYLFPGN
Method: (§1) Diluted inhibitor stocks are prepared by two-fold serial dilution from a primary stock whose concentration is selected (based on screening results or on prior attempts at IC50 evaluation) to achieve approximately 95% inhibition in the most concentrated well. Aliquots of each dilution are transferred to a microtitre plate in triplicate.
(§2) ICE enzyme is diluted to approximately 24 nM in HGE buffer (100 mM Hepes pH 7.5, 0.5 mM EDTA, 20% glycerol, 0.1% Bovine Serum Albumin (BSA), and activated by adding dithiothreitol (DTT) to a final concentration of 5 mM. The activated enzyme is then aliquoted into wells containing inhibitor or vehicle, and the plate is preincubated for 60 minutes at ambient temperature. Substrate (Ac-Tyr-Val-Ala-Asp-pNA) is added to each well to a final concentration of 50 µM, and plates are placed in the microtitre plate-reader thermostated to 25°C. Beginning 5 minutes after addition of substrate, absorbance (405 nm) of wells is monitored for 1 hour, and activity is calculated as the mean rate of change in absorbance during this interval.
Inhibition of Ich-2 enzyme is assayed as described above for ICE, except that enzyme is used at 64 nM, and 60 µM of the Ich-2-specific substrate Ac-Leu-Glu-Val-Asp-pNA is used instead of the ICE substrate Ac-Tyr-Val-Ala-Asp-pNA.

ICE [2] = target: T2, ICE (Homo sapiens, UniProt P29466); assay: ICE inhibition, Ki determination (fluorogenic substrate Ac-Tyr-Val-Ala-Asp-AMC); assay type: biochemical; details: 15 µM Ac-Tyr-Val-Ala-Asp-AMC, 0.5 nM enzyme, 30°C, reversible competitive model
T2 sequence (P29466 120-297 limits assumed): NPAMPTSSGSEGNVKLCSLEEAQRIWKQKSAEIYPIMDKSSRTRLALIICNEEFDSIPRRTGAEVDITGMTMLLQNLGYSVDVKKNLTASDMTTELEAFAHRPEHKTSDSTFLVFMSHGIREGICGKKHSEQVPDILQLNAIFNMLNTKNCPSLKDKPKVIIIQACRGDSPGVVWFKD
T2 sequence (P29466 317-404 limits assumed): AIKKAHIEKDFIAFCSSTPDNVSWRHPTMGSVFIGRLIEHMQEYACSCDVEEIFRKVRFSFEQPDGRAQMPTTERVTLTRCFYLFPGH
Method: Serial dilutions of each compound of the invention are prepared using an initial 8-fold dilution of a DMSO stock into HGE (100 mM HEPES, 20% glycerol v/v, 0.5 mM EDTA), followed by seven serial 2-fold dilutions into HGE + 12.5% DMSO. Ten microliters of diluted stocks or of vehicle (HGE + 12.5% DMSO) are placed in triplicate onto a 96-well microtiter plate. Enzyme is diluted into assay buffer (HGE, 5 mM DTT, 15 µM Ac-Tyr-Val-Ala-Asp-AMC; 0.5 nM final enzyme concentration, pre-warmed to 30°C), and this reaction mixture is added to the plate at 90 µL/well. Substrate hydrolysis is monitored for 300 seconds at 30°C using 385 and 460 nm excitation and emission filters, respectively. Triplicate curves are averaged, and slopes are evaluated by linear regression. To evaluate Ki, plots of percent inhibition vs inhibitor concentration are fit by non-linear regression to a reversible, competitive model: [formula] where the competition factor is (1 + [S]/KM) = 2.

ICE [3] = target: T2, ICE; assay: ICE Colorimetric Dose-Response (IC50) Assay; assay type: biochemical; details: 60 minutes preincubation, 50 µM Ac-Tyr-Val-Ala-Asp-pNA, 25°C
Method: as §1, §2

SMILES | IC50 [1] | IC50 (Ich-2 enzyme) | Ki (ICE [2]) | IC50 (ICE [3])
CCOC1OC(=O)CC1NC(=O)[C@@H](CC(=O)NCCn1cnc2cc(Cl)c(Cl)cc21)C(C)C (stereo partly shown) [Example 38, N^4-[2-(5,6-Dichloro-benzoimidazol-1-yl)-ethyl]-N^1-(2-ethoxy-5-oxo-tetrahydro-furan-3-yl)-2-isopropyl-succinamide] | 3400 nM | 18700 nM | 16.4 nM | 377 nM
CC(C)C(CC(=O)NCCCc1ccc(O)cc1)C(=O)NC(CC(=O)O)C(=O)CNS(=O)(=O)CC12CCC(CC1=O)C2(C)C (stereo not shown) [Example 17, 5-(7,7-Dimethyl-2-oxo-bicyclo[2.2.1]hept-1-ylmethanesulfonylamino)-3-{3-methyl-2-[[3-(4-hydroxyphenyl)-propylcarbamoyl]-methyl]-butyrylamino}-4-oxo-pentanoic acid] | 2250 nM | 4680 nM | 32.9 nM | 79 nM
CC(C)C(CC(=O)NCCc1ccccc1)C(=O)NC(CC(=O)O)C(=O)CNS(=O)(=O)CCc1ccccc1 (stereo not shown) [Example 5, 3-[3-Methyl-2-(phenethylcarbamoyl-methyl)-butyrylamino]-4-oxo-5-(2-phenyl-ethanesulfonylamino)-pentanoic acid] | 35000 nM | 9020 nM | 336 nM | 3550 nM
CCOC1OC(=O)CC1NC(=O)C(CC(=O)NCCn1c(C)nc2ccccc21)C(C)C (stereo not shown) [Example 46, N^1-(2-ethoxy-5-oxotetrahydro-furan-3-yl)-2-isopropyl-N^4-[2-(2-methyl-benzoimidazol-1-yl)-ethyl]-succinamide] | 6500 nM | 367000 nM | 28.4 nM | 438 nM
CC(C)C(CC(=O)NCCc1ccncc1)C(=O)NC(CC(=O)O)C(=O)CNS(=O)(=O)CC12CCC(CC1=O)C2(C)C (stereo not shown) [Example 32, 5-(7,7-Dimethyl-2-oxo-bicyclo[2.2.1]hept-1-ylmethanesulfonylamino)-3-{3-methyl-2-[(2-pyridin-4-yl-ethylcarbamoyl)-methyl]-butyrylamino}-4-oxo-pentanoic acid] | 3300 nM | 14100 nM | 26 nM | 458 nM
CC(C)C(CC(=O)NCCCc1ccccc1)C(=O)NC(CC(=O)O)C(=O)CNS(=O)(=O)CC12CCC(CC1=O)C2(C)C (stereo not shown) [Example 12, 5-(7,7-Dimethyl-2-oxo-bicyclo[2.2.1]hept-1-ylmethanesulfonylamino)-3-{3-methyl-2-[(3-phenyl-propylcarbamoyl)-methyl]-butyrylamino}-4-oxo-pentanoic acid] | 1200 nM | 1710 nM | 12.8 nM | 61 nM
CC(C)C(CC(=O)NCCCc1ccncc1)C(=O)NC(CC(=O)O)C(=O)CNS(=O)(=O)CC12CCC(CC1=O)C2(C)C (stereo not shown) [Example 26, 5-(7,7-Dimethyl-2-oxo-bicyclo[2.2.1]hept-1-ylmethanesulfonylamino)-3-{3-methyl-2-[(3-pyridin-4-yl-propylcarbamoyl)-methyl]-butyrylamino}-4-oxo-pentanoic acid] | 2000 nM | 9910 nM | 26.6 nM | 136 nM
CC(C)[C@H](CC(=O)NCCn1cnc2cc(Cl)c(Cl)cc21)C(=O)NC(C=O)CC(=O)O (stereo partly shown) [Example 56, 3-(2-{[2-(5,6-Dichloro-benzoimidazol-1-yl)-ethylcarbamoyl]-methyl}-3-methyl-butyrylamino)-4-oxo-butyric acid] | 3250 nM | 4020 nM | 4.4 nM | 28.6 nM
CC(C)C(CC(=O)N(C)CCc1cn(C)c2ccccc12)C(=O)NC(C=O)CC(=O)O (stereo not shown) [Example 21, 3-[3-Methyl-2-({methyl-[2-(1-methyl-1H-indol-3-yl)-ethyl]-carbamoyl}-methyl)-butyrylamino]-4-oxo-butyric acid] | 7500 nM | 209000 nM | 28 nM | 130 nM
CC(C)C(CC(N)=O)C(=O)NC(CC(=O)O)C(=O)CNS(=O)(=O)CC12CCC(CC1=O)C2(C)C (stereo not shown) [Example 2, 3-(2-Carbamoylmethyl-3-methyl-butyrylamino)-5-(7,7-dimethyl-2-oxo-bicyclo[2.2.1]hept-1-ylmethanesulfonylamino)-4-oxo-pentanoic acid] | 6250 nM | 3310 nM | 106 nM | 790 nM
CC(CC(=O)NCCc1ccccc1)C(=O)NC(CC(=O)O)C(=O)CNS(=O)(=O)CCc1ccccc1 (stereo not shown) [Example 1, 3-(2-Methyl-3-phenethylcarbamoyl-propionylamino)-4-oxo-5-(2-phenylethanesulfonylamino)-pentanoic acid] | 82500 nM | 89000 nM | 1600 nM | 14500 nM
CC(C)C(CC(=O)NCCc1cn(C)c2ccccc12)C(=O)NC(C=O)CC(=O)O (stereo not shown) [Example 54, 3-(3-Methyl-2-{[2-(1-methyl-1H-indol-3-yl)-ethylcarbamoyl]-methyl}-butyrylamino)-4-oxo-butyric acid] | 2850 nM | 11100 nM | 4 nM | 37 nM
CCOC1OC(=O)CC1NC(=O)C(CC(=O)NCCc1cn(C)c2ccccc12)C(C)C (stereo not shown) [Example 37, N^1-(2-Ethoxy-5-oxo-tetrahydro-furan-3-yl)-2-isopropyl-N^4-[2-(1-methyl-1H-indol-3-yl)-ethyl]-succinamide] | 2000 nM | 128000 nM | 29.7 nM | 581 nM
CC(C)C(CC(=O)NCCCc1cccnc1)C(=O)NC(CC(=O)O)C(=O)CNS(=O)(=O)CC12CCC(CC1=O)C2(C)C (stereo not shown) [Example 29, 5-(7,7-Dimethyl-2-oxo-bicyclo[2.2.1]hept-1-ylmethanesulfonylamino)-3-{3-methyl-2-[(3-pyridin-3-yl-propylcarbamoyl)-methyl]-butyrylamino}-4-oxo-pentanoic acid] | 1900 nM | 4790 nM | 24.5 nM | 113 nM
CC(C)C(CC(=O)NCCn1nnc2ccccc21)C(=O)NC(C=O)CC(=O)O (stereo not shown) [Example 58, 3-{2-[(2-Benzotriazol-1-yl-ethylcarbamoyl)-methyl]-3-methyl-butyrylamino}-4-oxo-butyric acid] | 7750 nM | 10600 nM | 31.8 nM | 336 nM
CC(C)C(CC(=O)NCCc1c[nH]c2ccccc12)C(=O)NC(CC(=O)O)C(=O)CNS(=O)(=O)CC12CCC(CC1=O)C2(C)C (stereo not shown) [Example 16, 5-(7,7-Dimethyl-2-oxo-bicyclo[2.2.1]hept-1-ylmethanesulfonylamino)-3-(2-{[2-(1H-indol-3-yl)-ethylcarbamoyl]-methyl}-3-methyl-butyrylamino)-4-oxo-pentanoic acid] | 350 nM | 1470 nM | 2.5 nM | 5.1 nM
